Experiments:
Experiment in all cases: relative viability (nuclei count vs DMSO), 5 days (fraction); higher = more cells survive
[1] = compound: C[C@@]1(C(=O)Nc2ccc(F)nc2)CCCN1c1nc(Nc2cc(C3CC3)n[nH]2)c2cccn2n1 + Cc1nc(Nc2ncc(C(=O)Nc3c(C)cccc3Cl)s2)cc(N2CCN(CCO)CC2)n1 [Dasatinib] (partner 0.075 µM)
Summary of the method: (§1)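 Lung cancer cell lines were pin-tool dosed in 1536-well plates on the day after seeding, with either a lone drug or a fixed anchor-drug dose plus five library-drug doses (not always all listed) in √10 steps. Nuclei were counted on 4× images after 5 days. Relative viability is the ratio of treated-well to vehicle-well nuclei counts, with each value a median of duplicate plates.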

[2] = compound: C[C@@]1(C(=O)Nc2ccc(F)nc2)CCCN1c1nc(Nc2cc(C3CC3)n[nH]2)c2cccn2n1 + CCNC(=O)c1noc(-c2cc(C(C)C)c(O)cc2O)c1-c1ccc(CN2CCOCC2)cc1 [Luminespib] (partner 0.01 µM)
Summary of the method: as §1

Motesanib + Bortezomib = compound: CC1(C)CNc2cc(NC(=O)c3cccnc3NCc3ccncc3)ccc21 [Motesanib] + CC(C)C[C@H](NC(=O)[C@H](Cc1ccccc1)NC(=O)c1cnccn1)B(O)O [Bortezomib] (partner 0.002 µM)
Summary of the method: as §1

Motesanib + Decitabine = compound: CC1(C)CNc2cc(NC(=O)c3cccnc3NCc3ccncc3)ccc21 [Motesanib] + Nc1ncn([C@H]2C[C@H](O)[C@@H](CO)O2)c(=O)n1 [Decitabine] (partner 2 µM)
Summary of the method: as §1

PC-3 [JPC-3] showed a relative viability ([1]; first compound 0.04 µM) of 1.09, a relative viability ([1]; first compound 0.1265 µM) of 0.94 and a relative viability ([1]; first compound 0.4 µM) of 0.891. It also gave a relative viability ([1]; first compound 1.265 µM) of 0.787, a relative viability ([2]; first compound 0.04 µM) of 0.642 and a relative viability ([2]; first compound 0.1265 µM) of 0.646. It also gave a relative viability ([2]; first compound 0.4 µM) of 0.561, a relative viability ([2]; first compound 1.265 µM) of 0.8 and a relative viability (Motesanib + Bortezomib; first compound 0.01 µM) of 0.921. It also gave a relative viability (Motesanib + Bortezomib; first compound 0.03162 µM) of 0.802, a relative viability (Motesanib + Bortezomib; first compound 0.1 µM) of 0.879 and a relative viability (Motesanib + Bortezomib; first compound 0.3162 µM) of 0.922. The relative viability (Motesanib + Bortezomib; first compound 1 µM) was 0.968, the relative viability (Motesanib + Decitabine; first compound 0.01 µM) was 0.803 and the relative viability (Motesanib + Decitabine; first compound 0.03162 µM) was 0.836. It also gave a relative viability (Motesanib + Decitabine; first compound 0.1 µM) of 0.858, a relative viability (Motesanib + Decitabine; first compound 0.3162 µM) of 0.897 and a relative viability (Motesanib + Decitabine; first compound 1 µM) of 1.01.
In the case of PC-14, the relative viability ([1]; first compound 0.04 µM) is reported as 0.281, the relative viability ([1]; first compound 0.1265 µM) is reported as 0.0303 and the relative viability ([1]; first compound 0.4 µM) is reported as 0.0906. For the same cell line, the relative viability ([1]; first compound 1.265 µM) was 0.0823, the relative viability ([2]; first compound 0.04 µM) was 0.164 and the relative viability ([2]; first compound 0.4 µM) was 0.12. It also gave a relative viability ([2]; first compound 1.265 µM) of 0.175, a relative viability (Motesanib + Bortezomib; first compound 0.01 µM) of 0.87 and a relative viability (Motesanib + Bortezomib; first compound 0.03162 µM) of 0.975. The relative viability (Motesanib + Bortezomib; first compound 0.1 µM) was 0.95, the relative viability (Motesanib + Bortezomib; first compound 0.3162 µM) was 0.81 and the relative viability (Motesanib + Bortezomib; first compound 1 µM) was 1.06. It also gave a relative viability (Motesanib + Decitabine; first compound 0.01 µM) of 0.243, a relative viability (Motesanib + Decitabine; first compound 0.03162 µM) of 0.174 and a relative viability (Motesanib + Decitabine; first compound 0.1 µM) of 0.275. For the same cell line, the relative viability (Motesanib + Decitabine; first compound 0.3162 µM) was 0.257 and the relative viability (Motesanib + Decitabine; first compound 1 µM) was 0.231.
Cell Line RERF-LC-KJ has a relative viability ([1]; first compound 0.04 µM) of 0.577, a relative viability ([1]; first compound 0.1265 µM) of 0.436 and a relative viability ([1]; first compound 0.4 µM) of 0.42. For the same cell line, the relative viability ([1]; first compound 1.265 µM) was 0.385, the relative viability ([2]; first compound 0.04 µM) was 1.15 and the relative viability ([2]; first compound 0.1265 µM) was 0.964. The relative viability ([2]; first compound 0.4 µM) was 1.09, the relative viability ([2]; first compound 1.265 µM) was 0.717 and the relative viability (Motesanib + Bortezomib; first compound 0.01 µM) was 1.01. For the same cell line, the relative viability (Motesanib + Bortezomib; first compound 0.03162 µM) was 1.13, the relative viability (Motesanib + Bortezomib; first compound 0.1 µM) was 1.09 and the relative viability (Motesanib + Bortezomib; first compound 0.3162 µM) was 1.09. It also gave a relative viability (Motesanib + Bortezomib; first compound 1 µM) of 1.03, a relative viability (Motesanib + Decitabine; first compound 0.01 µM) of 0.652 and a relative viability (Motesanib + Decitabine; first compound 0.03162 µM) of 0.752. For the same cell line, the relative viability (Motesanib + Decitabine; first compound 0.1 µM) was 0.719, the relative viability (Motesanib + Decitabine; first compound 0.3162 µM) was 0.67 and the relative viability (Motesanib + Decitabine; first compound 1 µM) was 0.665.
For SK-LU-1, the relative viability ([1]; first compound 0.04 µM) was 0.116, the relative viability ([1]; first compound 0.1265 µM) was 0.112 and the relative viability ([1]; first compound 0.4 µM) was 0.0979. It also gave a relative viability ([1]; first compound 1.265 µM) of 0.0968, a relative viability ([2]; first compound 0.04 µM) of 0.208 and a relative viability ([2]; first compound 0.1265 µM) of 0.191. It also gave a relative viability ([2]; first compound 0.4 µM) of 0.184, a relative viability ([2]; first compound 1.265 µM) of 0.172 and a relative viability (Motesanib + Bortezomib; first compound 0.01 µM) of 1.11. The relative viability (Motesanib + Bortezomib; first compound 0.03162 µM) was 1.48, the relative viability (Motesanib + Bortezomib; first compound 0.1 µM) was 1.3 and the relative viability (Motesanib + Bortezomib; first compound 0.3162 µM) was 1.38. The relative viability (Motesanib + Bortezomib; first compound 1 µM) was 1.58, the relative viability (Motesanib + Decitabine; first compound 0.01 µM) was 0.676 and the relative viability (Motesanib + Decitabine; first compound 0.03162 µM) was 0.649. The relative viability (Motesanib + Decitabine; first compound 0.1 µM) was 0.823, the relative viability (Motesanib + Decitabine; first compound 0.3162 µM) was 0.831 and the relative viability (Motesanib + Decitabine; first compound 1 µM) was 0.824.
For SW 1573, the relative viability ([1]; first compound 0.04 µM) was 0.494, the relative viability ([1]; first compound 0.1265 µM) was 0.275 and the relative viability ([1]; first compound 0.4 µM) was 0.213. It also gave a relative viability ([1]; first compound 1.265 µM) of 0.114, a relative viability ([2]; first compound 0.04 µM) of 0.224 and a relative viability ([2]; first compound 0.1265 µM) of 0.185. It also gave a relative viability ([2]; first compound 0.4 µM) of 0.182, a relative viability ([2]; first compound 1.265 µM) of 0.143 and a relative viability (Motesanib + Bortezomib; first compound 0.01 µM) of 1.17. The relative viability (Motesanib + Bortezomib; first compound 0.03162 µM) was 1.02, the relative viability (Motesanib + Bortezomib; first compound 0.1 µM) was 1.09 and the relative viability (Motesanib + Bortezomib; first compound 0.3162 µM) was 1.03. For the same cell line, the relative viability (Motesanib + Bortezomib; first compound 1 µM) was 0.928, the relative viability (Motesanib + Decitabine; first compound 0.01 µM) was 0.532 and the relative viability (Motesanib + Decitabine; first compound 0.03162 µM) was 0.511. It also gave a relative viability (Motesanib + Decitabine; first compound 0.1 µM) of 0.458, a relative viability (Motesanib + Decitabine; first compound 0.3162 µM) of 0.586 and a relative viability (Motesanib + Decitabine; first compound 1 µM) of 0.553.

— the supplement of paper PMC10307832
